Assay results reported in the NIST ThermoML archive (doi:10.1007/s10765-015-1980-6).

Test: xn = mol fraction of the nth substance listed
Conditions: 101 kPa, Liquid; for speed of sound: Frequency=2 MHz; for mass density: Pycnometric method

OCCOCCO [diethylene glycol] + CCC(C)O
speed of sound [m/s], Linear variable-path acoustic interferometer
Conditions	x1 = 0.1097	x1 = 0.2096	x1 = 0.2951	x1 = 0.3876	x1 = 0.512	x1 = 0.592	x1 = 0.6771	x1 = 0.7984	x1 = 0.8962	x1 = 1
298.15 K	1243.1	1273.6	1300.5	1330.6	1372	1400	1431.4	1480.5	1525.1	1579.3
303.15 K	1225.2	1256.7	1283.5	1313.5	1356.2	1386.1	1418.2	1468.2	1513.4	1568
308.15 K	1207.6	1239.8	1266	1296	1339.4	1370.1	1403	1454.1	1501.7	1557.3
313.15 K	1190.1	1222.7	1249.1	1279.3	1323.4	1354.9	1389.2	1441.2	1490	1546.1

mass density [kg/m3]
Conditions	x1 = 0.1097	x1 = 0.2096	x1 = 0.2951	x1 = 0.3876	x1 = 0.512	x1 = 0.592	x1 = 0.6771	x1 = 0.7984	x1 = 0.8962	x1 = 1
298.15 K	838.7	871.6	899.5	929.3	968.6	993.4	1019.2	1055.1	1083.2	1112.7
303.15 K	834.7	867.7	895.7	925.5	964.9	989.8	1015.8	1051.8	1079.9	1109.3
308.15 K	830.7	863.9	891.9	921.8	961.2	986.2	1012.3	1048.4	1076.6	1105.9
313.15 K	826.8	860.1	888.1	918	957.6	982.6	1008.9	1045.1	1073.3	1102.5

OCCOCCO [diethylene glycol] + CCCCO
Conditions	mass density, 298.15 K [kg/m3]	mass density, 303.15 K [kg/m3]	mass density, 308.15 K [kg/m3]	mass density, 313.15 K [kg/m3]	speed of sound, 298.15 K [m/s]	speed of sound, 303.15 K [m/s]	speed of sound, 308.15 K [m/s]	speed of sound, 313.15 K [m/s]
x1 = 0.1095	840.7	837	833.4	829.7	1265.9	1249.5	1232.3	1215.9
x1 = 0.2096	872.6	868.9	865.3	861.6	1294	1277.8	1261.3	1245.8
x1 = 0.2955	899.7	896.1	892.4	888.8	1320.9	1305.3	1289	1273.5
x1 = 0.3874	928.5	924.9	921.2	917.6	1350.8	1335.3	1318.7	1303.2
x1 = 0.5122	967.1	963.5	959.9	956.3	1392.3	1377.7	1361.9	1347.4
x1 = 0.592	991.5	988	984.4	980.9	1419.3	1406	1391.6	1378
x1 = 0.677	1017.3	1013.7	1010.2	1006.7	1448.9	1436.8	1424.2	1411.6
x1 = 0.7986	1053.5	1050.1	1046.6	1043.1	1492.7	1481.1	1470.1	1459.2
x1 = 0.896	1082.3	1078.8	1075.4	1072	1531.3	1520.6	1510	1500
x1 = 1	1112.7	1109.3	1105.9	1102.5	1579.3	1568	1557.3	1546.1

OCCCCO [1,4-butanediol] + OCCOCCO
speed of sound [m/s], Linear variable-path acoustic interferometer
Conditions	x2 = 0	x2 = 0.108	x2 = 0.1977	x2 = 0.2897	x2 = 0.4096	x2 = 0.509	x2 = 0.6116	x2 = 0.6912	x2 = 0.7992	x2 = 0.8838
298.15 K	1601.6	1568.1	1549.9	1543.5	1546.2	1552.2	1558.9	1564.5	1571.3	1575.3
303.15 K	1589.3	1558.9	1542	1535.7	1538.6	1544	1550.2	1555.3	1561.2	1564.6
308.15 K	1577.7	1549.8	1534.4	1528.2	1531.1	1536.3	1541.8	1546.4	1551.7	1554.7
313.15 K	1565.6	1540.6	1526.6	1520.3	1523.2	1528.1	1533.1	1537.2	1541.7	1544.4

mass density [kg/m3]
Conditions	x2 = 0	x2 = 0.108	x2 = 0.1977	x2 = 0.2897	x2 = 0.4096	x2 = 0.509	x2 = 0.6116	x2 = 0.6912	x2 = 0.7992	x2 = 0.8838
298.15 K	1012.6	1019.9	1026.6	1035	1047	1057.6	1069.4	1078.5	1090.6	1100
303.15 K	1009.6	1017.1	1024	1032.3	1044.3	1054.9	1066.5	1075.6	1087.6	1096.8
308.15 K	1006.7	1014.4	1021.4	1029.6	1041.6	1052.1	1063.7	1072.6	1084.5	1093.6
313.15 K	1003.7	1011.7	1018.7	1027	1038.9	1049.4	1060.8	1069.6	1081.3	1090.3
